Measured values reported in patent US20250289789A1, “REVERSIBLE LYSINE COVALENT MODIFIERS OF CDK2 AND USES THEREOF” (Terremoto Biosciences, Inc., priority 2023, published 2025).
Read-outs that look alike come from different tables or passages of the source.

Legend:
Format in all cases: cell-based
[1] = molecular target: T1, CDK1-NanoLuc fusion with CCNB1 in 293T or 293 cells (Homo sapiens, UniProt P06493); assay: NanoBRET Target Engagement (TE) Intracellular Kinase Assay, CDK1/CCNB1; conditions: NanoBRET TE intracellular kinase assay, 2-hour incubation, read-out: NanoBRET-CDK1/B1 IC50
T1 construct: host or cells: 293T (ATCC CRL-3216) or 293 (ATCC CRL-1573)
Procedure, shortened: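 IC50 derived by four-parameter logistic fit of DMSO-normalized acceptor/donor (610/450 nm) BRET ratio. Compound and Tracer K-10 were applied together for 2 h at 37° C to 293 or 293T cells transfected 24 h earlier with CDK1-NanoLuc fusion and cyclin B1.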

[2] = molecular target: T2, CDK2-NanoLuc fusion with CCNE1 in 293T or 293 cells (Homo sapiens, UniProt P24941); assay: NanoBRET Target Engagement (TE) Intracellular Kinase Assay, CDK2/CCNE1; conditions: NanoBRET TE intracellular kinase assay, 2-hour incubation, read-out: NanoBRET-CDK2/E1 IC50
T2 construct: host or cells: 293T (ATCC CRL-3216) or 293 (ATCC CRL-1573)

[3] = molecular target: T3, CDK4-NanoLuc fusion with CCND1 in 293T or 293 cells (Homo sapiens, UniProt P11802); assay: NanoBRET Target Engagement (TE) Intracellular Kinase Assay, CDK4/CCND1; conditions: NanoBRET TE intracellular kinase assay, 2-hour incubation, read-out: NanoBRET-CDK4/D1 IC50
T3 construct: host or cells: 293T (ATCC CRL-3216) or 293 (ATCC CRL-1573)

[4] = system: Phospho-Rb Ser807/811 in OVCAR3 cells; assay: OVCAR3 Phospho-Rb Ser807/811 HTRF assay; conditions: Homo sapiens, OVCAR3 cells, Phospho-Rb Ser807/811 HTRF, 1 hour incubation, read-out: pRb-OVCAR3 IC50
Method: Cells were trypsinized and resuspended in 1 mM hydroxyurea (Sigma; H8627), 90% RPMI and 10% fetal bovine serum. […] Dose response curve normalized to DMSO control was plotted using four-parameter logistic model for IC50 calculation.

T1 sequence (P06493 whole entry, the tested form may be a part): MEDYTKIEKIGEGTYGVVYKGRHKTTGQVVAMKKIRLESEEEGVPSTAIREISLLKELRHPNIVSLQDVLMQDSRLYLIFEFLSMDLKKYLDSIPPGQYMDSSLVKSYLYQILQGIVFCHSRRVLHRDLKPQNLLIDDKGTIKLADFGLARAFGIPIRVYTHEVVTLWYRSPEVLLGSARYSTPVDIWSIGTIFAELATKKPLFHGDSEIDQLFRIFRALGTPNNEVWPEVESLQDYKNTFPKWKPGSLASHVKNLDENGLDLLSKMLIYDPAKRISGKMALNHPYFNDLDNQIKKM
T1 sequence (P14635 whole entry partner, the tested form may be a part): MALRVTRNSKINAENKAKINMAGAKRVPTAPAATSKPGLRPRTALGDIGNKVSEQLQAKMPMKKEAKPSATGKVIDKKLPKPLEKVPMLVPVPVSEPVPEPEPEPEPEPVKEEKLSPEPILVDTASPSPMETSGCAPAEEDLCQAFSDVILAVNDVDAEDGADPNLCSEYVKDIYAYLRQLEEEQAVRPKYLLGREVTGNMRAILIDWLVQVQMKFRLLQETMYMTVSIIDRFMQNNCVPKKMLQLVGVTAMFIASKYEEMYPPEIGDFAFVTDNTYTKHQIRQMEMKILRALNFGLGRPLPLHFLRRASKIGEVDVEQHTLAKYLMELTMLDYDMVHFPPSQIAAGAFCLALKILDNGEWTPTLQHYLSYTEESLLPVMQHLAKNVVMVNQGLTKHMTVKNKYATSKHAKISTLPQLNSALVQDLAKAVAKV
T3 sequence (P11802 whole entry, the tested form may be a part): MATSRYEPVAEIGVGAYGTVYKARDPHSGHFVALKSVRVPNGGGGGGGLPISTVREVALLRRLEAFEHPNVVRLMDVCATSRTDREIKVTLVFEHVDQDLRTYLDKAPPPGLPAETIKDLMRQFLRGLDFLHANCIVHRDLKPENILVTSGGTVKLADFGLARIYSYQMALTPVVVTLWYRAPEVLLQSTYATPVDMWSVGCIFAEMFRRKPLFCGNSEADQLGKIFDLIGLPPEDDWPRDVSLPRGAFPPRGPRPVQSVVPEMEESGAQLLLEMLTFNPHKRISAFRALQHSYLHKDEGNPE
T3 sequence (P24385 whole entry partner, the tested form may be a part): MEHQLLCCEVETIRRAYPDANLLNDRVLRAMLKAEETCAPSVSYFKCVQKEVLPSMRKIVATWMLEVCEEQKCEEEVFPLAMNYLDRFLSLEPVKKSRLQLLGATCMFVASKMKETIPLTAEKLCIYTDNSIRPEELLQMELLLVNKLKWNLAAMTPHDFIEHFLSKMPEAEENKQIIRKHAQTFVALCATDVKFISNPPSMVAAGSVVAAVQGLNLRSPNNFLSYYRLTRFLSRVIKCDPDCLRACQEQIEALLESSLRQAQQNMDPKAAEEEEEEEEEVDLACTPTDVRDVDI

| Compound | IC50 [1] [nM] | IC50 [2] [nM] | IC50 [3] [nM] | IC50 ([4]; OVCAR-3, 1 h) [nM] | IC50 ([4]; OVCAR-3) [nM] |
| --- | --- | --- | --- | --- | --- |
| Cc1ncc(Oc2cccc(O)c2C=O)nc1C(=O)Nc1cc([C@H]2CC[C@@H](OC(=O)NC(C)C)C2)[nH]n1 [Compound 70, (1R,3S)-3-{5-[6-(2-formyl-3-hydroxyphenoxy)-3-methylpyrazine-2-amido]-2H-pyrazol-3-yl}cyclopentyl N-isopropylcarbamate] | 337 | 10.1 | 699 | 2680 | – |
| CC(C)NC(=O)O[C@@H]1CC[C@H](c2cc(NC(=O)c3cnn(-c4cccc(O)c4C=O)c3)n[nH]2)C1 [Compound 8, (1R,3S)-3-{5-[1-(2-formyl-3-hydroxyphenyl)pyrazole-4-amido]-2H-pyrazol-3-yl}cyclopentyl N-isopropylcarbamate; trifluoroacetic acid] | 73.5 | 24.9 | 5460 | – | 880 |
| CC(C)NC(=O)O[C@@H]1CC[C@H](c2cc(NC(=O)COc3cccc(-c4nccs4)c3C=O)n[nH]2)C1 [Compound 98, (1R,3S)-3-(3-(2-(2-formyl-3-(thiazol-2-yl)phenoxy)acetamido)-1H-pyrazol-5-yl)cyclopentyl isopropylcarbamate] | 1490 | 12 | > 10000 | 3340 | – |
| CC(C)NC(=O)O[C@@H]1CC[C@H](c2cc(NC(=O)c3cc(C(=O)Nc4cccc(O)c4C=O)nn3C)n[nH]2)C1 [Compound 20, (1R,3S)-3-(5-{5-[(2-formyl-3-hydroxyphenyl)carbamoyl]-2-methylpyrazole-3-amido}-2H-pyrazol-3-yl)cyclopentyl N-isopropylcarbamate; trifluoroacetic acid] | 147 | 10.5 | 1210 | 915 | – |
| CC(C)NC(=O)O[C@@H]1CC[C@H](c2cc(Nc3cc(COc4cccc(O)c4C=O)ccn3)n[nH]2)C1 [Compound 24, (1R,3S)-3-(3-((4-((2-formyl-3-hydroxyphenoxy)methyl)pyridin-2-yl)amino)-1H-pyrazol-5-yl)cyclopentyl isopropylcarbamate] | 516 | 18.7 | 4880 | 3760 | – |
| COc1cc(OC)c2c(c1C=O)C[C@H](C(=O)Nc1cc([C@H]3C[C@@H](OC(=O)NC(C)C)C3)[nH]n1)C2 [Compound 214] | 155 | 56.8 | > 3460 | 375 | – |
| O=Cc1c(O)cccc1OCC(=O)Nc1cc([C@H]2CC[C@@H](OC(=O)NC3CC3)C2)[nH]n1 [Compound 86, (1R,3S)-3-(3-(2-(2-formyl-3-hydroxyphenoxy)acetamido)-1H-pyrazol-5-yl)cyclopentyl cyclopropylcarbamate] | 32.5 | 3.73 | > 10000 | 212 | – |
| COc1cccc(-c2cc(C(=O)Nc3cc([C@H]4CC[C@@H](OC(=O)NC(C)C)C4)[nH]n3)n(C)n2)c1C=O [Compound 106, (1R,3S)-3-{5-[5-(2-formyl-3-methoxyphenyl)-2-methylpyrazole-3-amido]-2H-pyrazol-3-yl}cyclopentyl N-isopropylcarbamate; trifluoroacetic acid] | 15.4 | 4.3 | 3330 | 306 | – |
| COc1cc(O)c(C=O)c(OCC(=O)Nc2cc([C@H]3CC[C@@H](OC(=O)NCCC#N)C3)[nH]n2)c1 [Compound 208] | 21.2 | 9.87 | 7910 | 41.8 | – |
| CC(C)NC(=O)O[C@@H]1CC[C@H](c2cc(NC(=O)CSc3cccc(O)c3C=O)n[nH]2)C1 [Compound 96, (1R,3S)-3-(5-{2-[(2-formyl-3-hydroxyphenyl)sulfanyl]acetamido}-2H-pyrazol-3-yl)cyclopentyl N-isopropylcarbamate; trifluoroacetic acid] | 129 | 7.13 | 1820 | 601 | – |
| COc1cc(O)c(C=O)c(OCC(=O)Nc2cc([C@H]3CC[C@@H](OC(=O)NC4(C)CCC4)C3)[nH]n2)c1 [Compound 254] | 2.8 | 2.28 | 778 | 21.4 | – |
| CC(C)NC(=O)O[C@@H]1CC[C@H](c2cc(NC(=O)c3ccc(C=O)c(O)c3)n[nH]2)C1 [Compound 2, (1R,3S)-3-[5-(4-formyl-3-hydroxybenzamido)-2H-pyrazol-3-yl]cyclopentyl N-isopropylcarbamate; trifluoroacetic acid] | 3.45 | 3.82 | 89.5 | 68 | – |
| COCc1cc(O)c(C=O)c(-c2cc(C(=O)Nc3cc([C@H]4CC[C@@H](OC(=O)NC(C)C)C4)[nH]n3)n(C)n2)c1 [Compound 71, (1R,3S)-3-(5-{5-[2-formyl-3-hydroxy-5-(methoxymethyl)phenyl]-2-methylpyrazole-3-amido}-2H-pyrazol-3-yl)cyclopentyl N-isopropylcarbamate; trifluoroacetic acid] | 10.3 | 7.8 | 4110 | 85.5 | – |
| COc1cc(OC)c(C=O)c(OCC(=O)Nc2cc([C@H]3C[C@@H](OC(=O)N4CCC4(C)C)C3)[nH]n2)c1 [Compound 109, (1s,3s)-3-(3-(2-(2-formyl-3,5-dimethoxyphenoxy)acetamido)-1H-pyrazol-5-yl)cyclobutyl 2,2-dimethylazetidine-1-carboxylate] | 4.14 | 1.85 | 4370 | 17.6 | – |
| C#C[C@H](C)NC(=O)O[C@@H]1CC[C@H](c2cc(NC(=O)COc3cc(OC)cc(O)c3C=O)n[nH]2)C1 [Compound 216] | 15 | 4.44 | 9910 | 64.6 | – |
| COc1ccc(-c2cc(C(=O)Nc3cc([C@H]4CC[C@@H](OC(=O)NC(C)C)C4)[nH]n3)n(C)n2)c(C=O)c1O [Compound 74, (1R,3S)-3-{5-[5-(2-formyl-3-hydroxy-4-methoxyphenyl)-2-methylpyrazole-3-amido]-2H-pyrazol-3-yl}cyclopentyl N-isopropylcarbamate; trifluoroacetic acid] | 29.5 | 7.06 | 3950 | 523 | – |
| COc1cc(O)c(C=O)c(OCC(=O)Nc2cc([C@H]3CC[C@@H](OC(=O)N4CC[C@@H]5C[C@@H]54)C3)[nH]n2)c1 [Compound 236] | 12.8 | 1.9 | 4250 | 32.2 | – |
| CC(C)NC(=O)O[C@@H]1CC[C@H](c2cc(NC(=O)c3cc(-c4cccc(O)c4C=O)n(C)n3)n[nH]2)C1 [Compound 59, (1R,3S)-3-{5-[5-(2-formyl-3-hydroxyphenyl)-1-methylpyrazole-3-amido]-2H-pyrazol-3-yl}cyclopentyl N-isopropylcarbamate] | 362 | 32.1 | > 10000 | 2300 | – |
| O=Cc1c(O)cccc1OCC(=O)Nc1cc([C@H]2CC[C@@H](OC(=O)NC3CCCC3)C2)[nH]n1 [Compound 88, (1R,3S)-3-(3-(2-(2-formyl-3-hydroxyphenoxy)acetamido)-1H-pyrazol-5-yl)cyclopentyl cyclopentylcarbamate] | 42 | 3.47 | > 10000 | 227 | – |
| COc1cc(O)c(C=O)c(OCC(=O)Nc2cc([C@H]3CC[C@@H](OC(=O)NC[C@@H](C)OC)C3)[nH]n2)c1 [Compound 202] | 41.6 | 5.67 | > 10000 | 70.5 | – |
| CC(C)NC(=O)O[C@@H]1CC[C@H](c2cc(NC(=O)c3cnc(-c4cccc(O)c4C=O)o3)n[nH]2)C1 [Compound 55, (1R,3S)-3-{5-[2-(2-formyl-3-hydroxyphenyl)-1,3-oxazole-5-amido]-2H-pyrazol-3-yl}cyclopentyl N-isopropylcarbamat] | 69.9 | 21.9 | > 10000 | 1430 | – |
| COc1cc(OC)c(C=O)c(OCC(=O)Nc2cc([C@H]3C[C@@H](OC(=O)N4C5COCC4C5)C3)[nH]n2)c1 [Compound 108, (1s,3s)-3-(3-(2-(2-formyl-3,5-dimethoxyphenoxy)acetamido)-1H-pyrazol-5-yl)cyclobutyl 3-oxa-6-azabicyclo[3.1.1]heptane-6-carboxylate] | 15.2 | 3.65 | > 10000 | 44.4 | – |
| COc1cc(O)c(C=O)c(OCC(=O)Nc2cc([C@H]3CC[C@@H](OC(=O)NC4(C#N)CC4)C3)[nH]n2)c1 [Compound 215] | 20.6 | 10.3 | > 6270 | 41.5 | – |
| CC(C)NC(=O)O[C@@H]1CC[C@H](c2cc(NC(=O)OCCc3cccc(O)c3C=O)n[nH]2)C1 [Compound 35, 2-(2-formyl-3-hydroxyphenyl)ethyl N-{5-[(1S,3R)-3-[(isopropylcarbamoyl)oxy]cyclopentyl]-1H-pyrazol-3-yl}carbamate; trifluoroacetic acid] | 537 | 23.9 | 3960 | 4130 | – |
